Data set [1] has as its system bovine pulmonary arteries (BPA). Kind of data set: Heme content of BPA homogenates (QuantiChrom heme assay). It is filed as cell-based. The following applies: organ culture with 100 μM ALA and/or 100 μM Fe. Here is the method: Heme was quantified in BPA homogenates using a QuantiChrom heme assay kit purchased from BioAssay Systems, and changes in absorbance were measured in a BIOTEK scanning microplate spectrophotometer. Briefly, segments were homogenized in 20 mM MOPS+sucrose buffer and diluted to approximately 5 mg protein/ml. Homogenates were centrifuged at 2000×g for 5 min, and 50 μl of supernatant obtained were assayed for their heme content based on the manufacture's instructions, employing measurements of changes in absorbance at 400 nm. The protein content of the supernatant was measured with Biorad protein assay kit, and tissue heme levels were reported as nanomoles/mg protein.

The conditions of data set [2]: humans, factor which limited the doses of ALA, reference (13); cited from earlier work.
Another data set concerns aorta. The data set can be described thus: Contraction to PDBu of aorta from rats treated with ALA in vivo. Set-up: species or system rat. Particulars: single dose 60 mg/kg ALA i.p., 24 hours after treatment. On the procedure:
The rats were pretreated with 60 mg/kg ALA or with a saline vehicle (i.p.). After 24 hours they were anesthetized with 50 mg/kg sodium pentobarbital and the aorta was removed for in vitro studies. Isolated aortic rings were studied for changes in protoporphyrin IX fluorescence and force under the same conditions similar to those used for bovine pulmonary arteries described above, except that 1 gram of passive force was used.

Another data set addresses T1, sGC (Bos taurus, UniProt P16068).
T1 sequence (P16068 1-619): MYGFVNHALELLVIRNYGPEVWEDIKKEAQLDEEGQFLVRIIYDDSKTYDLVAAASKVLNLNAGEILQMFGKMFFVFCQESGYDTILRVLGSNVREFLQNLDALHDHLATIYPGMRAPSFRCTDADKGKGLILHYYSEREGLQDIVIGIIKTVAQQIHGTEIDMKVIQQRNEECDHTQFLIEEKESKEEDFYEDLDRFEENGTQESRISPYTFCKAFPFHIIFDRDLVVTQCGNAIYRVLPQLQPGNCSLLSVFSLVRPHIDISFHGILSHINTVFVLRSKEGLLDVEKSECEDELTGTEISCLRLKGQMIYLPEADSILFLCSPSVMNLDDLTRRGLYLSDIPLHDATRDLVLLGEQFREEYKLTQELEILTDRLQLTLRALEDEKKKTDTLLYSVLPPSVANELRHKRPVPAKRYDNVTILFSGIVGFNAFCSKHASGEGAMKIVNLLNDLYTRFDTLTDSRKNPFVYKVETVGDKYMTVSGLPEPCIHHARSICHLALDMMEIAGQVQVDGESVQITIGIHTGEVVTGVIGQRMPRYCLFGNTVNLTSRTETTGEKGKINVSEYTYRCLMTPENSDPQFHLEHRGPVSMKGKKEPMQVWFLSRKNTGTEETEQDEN
T1 sequence (P19687 1-691 partner): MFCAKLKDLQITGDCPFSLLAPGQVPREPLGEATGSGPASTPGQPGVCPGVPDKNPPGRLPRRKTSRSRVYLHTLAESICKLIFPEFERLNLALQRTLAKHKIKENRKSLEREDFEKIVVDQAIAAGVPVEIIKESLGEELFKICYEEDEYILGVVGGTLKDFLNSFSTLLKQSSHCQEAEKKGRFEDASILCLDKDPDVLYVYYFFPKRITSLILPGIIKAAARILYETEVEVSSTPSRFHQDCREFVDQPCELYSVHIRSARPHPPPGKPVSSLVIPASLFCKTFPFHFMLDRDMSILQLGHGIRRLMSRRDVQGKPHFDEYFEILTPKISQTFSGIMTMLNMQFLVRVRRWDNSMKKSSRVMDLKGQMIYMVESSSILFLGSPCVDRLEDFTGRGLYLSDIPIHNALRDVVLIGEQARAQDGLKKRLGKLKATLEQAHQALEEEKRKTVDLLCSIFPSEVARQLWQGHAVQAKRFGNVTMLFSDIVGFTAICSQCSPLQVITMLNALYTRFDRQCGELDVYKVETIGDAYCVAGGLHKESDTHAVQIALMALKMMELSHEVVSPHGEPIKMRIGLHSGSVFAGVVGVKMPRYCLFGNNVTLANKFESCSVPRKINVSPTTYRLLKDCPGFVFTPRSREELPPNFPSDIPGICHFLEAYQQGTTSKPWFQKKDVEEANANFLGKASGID
The data set can be described thus: sGC activity in BPA homogenates (cGMP by ELISA). It is filed as biochemical, bovine. Set-up: Guanylate cyclase activity of homogenates of BPA was measured by enzyme immunoassay; from tissue; host or cells: BPA (pulmonary artery rings, organ cultured) homogenate. The following applies: organ culture with 100 μM ALA and/or 100 μM Fe. Here is the method: Guanylate cyclase activity of homogenates of BPA was measured by enzyme immunoassay of the amounts of cGMP generated. Briefly, BPA were pulverized in liquid nitrogen and homogenized in MOPS buffer 1:3 wt to buffer ratio at 5° C. Reaction mixture (0.2 ml final volume) contained 20 mM MOPS-KOH (pH 7.4), 0.1 mM GTP, 2 mM MgCl2, 0.3 mM of the phosphodiesterase inhibitor 3-Isobutyl-1-methylxanthine, a GTP-regenerating system consisting of 10 mM phosphocreatine and 150 U/ml creatine phosphokinase, and 0.1 ml of homogenate (11, 15), and test agents, as indicated. Assays of sGC activity were initiated by the addition of BPA homogenate. Incubations were conducted for 10 min at 37° C., and they were terminated by the addition of 0.1 ml of preheated 12 mM EDTA. This was followed by boiling the assay mixtures for 10 min and a subsequent addition of 5% trichloroacetic acid. The precipitate was removed by centrifugation and the supernatant was washed three times with water-saturated diethyl ether. Residual ether was removed by incubation at 70° C. for 5 minutes, prior to measurement of cGMP by ELISA (Cayman), as described in the manual supplied by manufacturer of the ELISA kit.
(ELISA stands for enzyme-linked immunosorbent assay.)

Molecules are shown by their SMILES.

For the compound `NCC(=O)CCC(=O)O` [ALA, δ-aminolevulinic acid], the BPA heme levels result in data set [1] is given as “did not reach statistical significance”. In addition, in data set [2], the “systemic and pulmonary artery pressure” value was “reduction in systemic and pulmonary artery pressure”. Also, in the data set on aorta, the “contraction of aorta to 10 μM PDBu” value is on record as “decreased contraction”. The “BPA homogenate sGC activity” value on sGC is “increase in BPA homogenate sGC activity”.
